Results: patent publication US6548543B1, “Remedies or preventives containing cyclopentenone compounds as the active ingredient” (Takara Shuzo Co., Ltd., priority 1998, dated 2003)
In brackets after ≈: the same amount, converted by molar mass. Numbered stars: 1 amine (or outer) side, 2 acyl side, 3 side chain; on linkers, the order of the positions; unused ones are H or OH. Bridge positions count the residues as written; N and C are the ends. Square brackets hold non-standard residues; d marks the D form. Peptide text beside a SMILES is read from it. I, II: the chains in the order shown. Actinocin(9to1) = Cc1c2oc3c(C)ccc(C(=O)[*:1])c3nc-2c(C(=O)[*:2])c(N)c1=O; NMeV = CN[C@H](C(=O)O)C(C)C; Sar = CNCC(=O)O

Experiments:
[1] = system: HL-60 (ATCC CCL-240) cells; test: Viability and apoptosis of HL-60 cells (Trypan Blue, optical microscope); assay type: cell-based; conditions: 24 hours; for IC50: Homo sapiens, Trypan Blue, read-out: Viability50 (concentration that results in a viability of 50%)
Method: HL-60 (ATCC CCL-240) cells were cultured at 37° C. in RPMI 1640 medium (Bio Whittaker) containing 10% fetal calf serum (FCS; JRH) which had been treated at 56° C. for 30 minutes and suspended in RPMI 1640 medium at a concentration of 2.5×10^5 cells/5 ml.
10 μl each of solutions of diisobutyrylcyclopentenone, dimethoxyacetylcyclopentenone, dimethylfumarylcyclopentenone or dimethylmaleylcyclopentenone in 70% ethanol in water diluted to varying concentrations was added to 5 ml of the suspension. The mixtures were incubated at 37° C. for 24 hours in the presence of 5% Co2. 10 μl of aqueous actinomycin D (Sigma) solution (0.5 mg/ml), which is known as a reagent that induces apoptosis, was used in place of the sample and the mixture was incubated under the same conditions for confirmation.
The cultured cells were examined under an optical microscope.
Furthermore, a portion of the cells cultured as described above was stained with 0.4% Trypan Blue and examined under an optical microscope. The number of viable cells which were not stained and the number of dead cells which were stained blue were counted. The concentration of each of the samples that results in a viability of 50% (Viability50 μM) was determined.

Meth A = test: Ascitic cancer Meth A, prolongation of survival, 5 successive days; assay type: in vivo, BALB/c mouse; conditions: intraperitoneal 10 mg/kg
Method: (§1) (3) The carcinostatic activities of dipropionylcyclopentenone and diisobutyrylcyclopentenone against various ascitic cancers were examined using two types of cancer cells, Ehrlich ascites carcinoma (EAC) and Meth A, administered intraperitoneally or orally at a varying dose.
(§2) Dipropionylcyclopentenone or diisobutyrylcyclopentenone was intraperitoneally or orally administered for 5 successive days from the day after the transplantation with cancer cells. Injectable distilled water was administered to a control group in a similar manner. Average days of survival, prolongation rate and 30-day survival number were calculated for groups each consisting of 8 mice.

[2] = Single oral dose toxicity; assay type: in vivo; conditions: mouse
Method: No toxicity is observed when a physiologically effective amount of the cyclopentenone derivative or an optical isomer thereof, or a salt thereof obtained according to the present invention is administered.

[3] = system: tumor necrosis factor (TNF)-α; test: Endotoxin shock model, serum TNF-α after LPS; assay type: in vivo, CDF1 mice; conditions: serum 1.5 hours after LPS
Method: (1) A model for endotoxin shock was constructed using CDF1 mice (8 weeks old, female, purchased from Japan SLC). Distilled water (control), or 10 mg/kg of diisopropionylcyclopentenone or diisobutyrylcyclopentenone was subcutaneously administered to a mouse. 20 μg of lipopolysaccharide (LPS; Sigma) was intraperitoneally administered to each mouse 30 minutes after the administration. Blood was collected from the mouse 1.5 hours after the administration with LPS. The amount of tumor necrosis factor (TNF)-α in a serum separated from the collected blood was measured using a commercially available ELISA kit (R&D). Each group consisted of 4 mice.
(2) A model for endotoxin shock was constructed by intraperitoneally administering 20 μg of LPS to a CDF1 mouse (8 weeks old, female). 30 or 100 mg/kg of dipropionylcyclopentenone or diisobutyrylcyclopentenone was orally administered 30 minutes before the administration with LPS. Blood was collected from the mouse 1.5 hours after the administration with LPS. The amount of TNF-α in a serum separated from the collected blood was measured using an ELISA kit. Each group consisted of 4 mice.

[4] = system: Candida albicans TIMM0136; test: Antifungal activity, growth inhibition; assay type: cell-based; conditions: 10 μl of solution at 100 or 500 μg/ml added to 100 μl culture, 30° C., 48 hours
Method: Dipropionylcyclopentenone, diisobutyrylcyclopentenone and di-2-hexenoylcyclopentenone were used to examine their antifungal activities against Candida albicans TIMM0136.
Candida albicans cells were cultured overnight in YNBG medium containing 0.67% Yeast Nitrogen Base (Difco) and 1.0% glucose (seed culture). The culture was then diluted with fresh Yeast Nitrogen Base medium to a concentration of 1×10^6 cells/ml. 100 μl of the dilution was dispensed into each well of a 96-well microtiter plate.
10 μl each of solutions of dipropionylcyclopentenone, diisobutyrylcyclopentenone or di-2-hexenoylcyclopentenone in 70% ethanol at a concentration of 100 μg/ml or 500 μg/ml, or 10 μl of 70% ethanol solution was added to the well. The plate was incubated without shaking at 30° C. for 48 hours (main culture).

[5] = system: 70-kDa heat shock protein; test: Induction of 70-kDa heat shock protein in HL-60 cells (Western blot); assay type: cell-based; parameters: key to Degree of induction of 70-kDa heat shock protein: − means that no induction was observed; ± means that a slight induction was observed; + represents the induction level; ++: Increased number of + means increased induction; +++: Increased number of + means increased induction; conditions: for Degree of induction of 70-kDa heat shock protein: HL-60, 6 hours
Method: (1) 5 ml of RPMI 1640 medium containing 10% fetal calf serum and HL-60 (ATCC CCL-240) cells at a concentration of 2×10^5 cells/ml was placed in each well of a 6-well plate. The plate was incubated at 37° C. for 24 hours in the presence of 5% CO2. Dipropionylcyclopentenone, diisobutyrylcyclopentenone or di-2-hexenoylcyclopentenone at a final concentration of 0, 0.63, 1.3, 2.5, 5, 10 or 20 μM was then added thereto. The incubation was continued for additional 6 hours.
After incubation, the cell number was counted. The cells were harvested by centrifugation, washed with PBS to prepare cells treated with one of the samples. Cells that were cultured in the same manner after heated at 45° C. for 10 minutes were also prepared.
These treated cells were used for SDS-PAGE according to the method as described in Molecular Cloning [Cold Spring Harbor Laboratory Press (1989)]. The treated cells were suspended in SDS-PAGE Sample buffer at a concentration of 2.5×10^6 cells/ml. The cell suspensions were treated at 100° C. for 10 minutes. 5 μl each of the cell suspensions was applied to two SDS-PAGE gels (5% stacking gel, 10% separation gel) and electrophoresed. One of the gels was subjected to Coomassie staining. The other gel was blotted onto a polyvinylidene difluoride transfer membrane (Immobilon™, Millipore, Cat. #IPVH000-10). The membrane was blocked at 4° C. overnight using Block Ace (Dainippon Pharmaceutical, Cat. #UK-B25).
The blocked membrane was reacted with a monoclonal antibody HSP72/73(Ab-1) (Oncogene Research Products, Cat. #HSP01), which specifically reacts with heat-inducible 70-kDa heat shock protein. The membrane was washed with TBS containing 0.05% Tween 20 followed by TBS. The membrane was then reacted with a peroxidase-conjugated secondary antibody HRP-Rabbit Anti-Mouse IgG (H+L) (Zymed Laboratories, Inc., Cat. #61-6520), and then washed as described above. The membrane reacted with the primary and secondary antibodies was reacted with a chemiluminol reagent Renaissance™ (Dupont NEN, Cat. #NEL-100). The membrane was then exposed to an X-ray film to confirm the induction of 70-kDa heat shock protein.

[6] = system: Ehrlich ascites carcinoma (EAC); test: Ascitic cancer EAC, prolongation of survival; assay type: in vivo, ddY mouse; conditions: 5 successive days; for 30-day survival number: groups of 8 mice
Method: as §1, §2

[7] = system: λ-carrageenan pedal edema; test: Carrageenan induced pedal edema; assay type: in vivo, Lewis rats; conditions: rat, 3 hours after carrageenan
Method: Lewis rats (male, 9 weeks old, weighing about 250 g) were purchased from Seac Yoshitomi.
Rats were fasted from 18 hours before the start of the experiments. Dipropionylcyclopentenone, dihexanoylcyclopentenone, di-2-hexenoylcyclopentenone, diisobutyrylcyclopentenone or dibenzoylcyclopentenone dissolved in olive oil (Nacalai Tesque) was orally administered to 4 rats per group at 1 or 10 mg/10 ml/kg.
100 μl of 1% λ-carrageenan (Wako Pure Chemical Industries) suspension in saline (Otsuka Pharmaceutical) was injected into the sole of right paw of a rat 0.5 hour after the administration of test substance to induce pedal edema. The volume of the right foot of the rat was measured using an instrument for measuring pedal volume (Ugo Basile) 3 hours after the injection with carrageenan. The measurements were expressed as the rate of increase calculated based on the volume of the right foot of each rat measured before the administration with carrageenan.
FIG. 5 illustrate the relationship between the amount of cyclopentenone derivative administered and the rate of increase in edema in foot. The horizontal axis represents the dose […] and the vertical axis represents the rate of increase (%).

[8] = oral, single dosage of 100 mg/kg

Molecule: Cc1c2oc3c(C)ccc(C(=O)N[C@@H]4C(=O)N[C@H](C(C)C)C(=O)N5CCC[C@H]5C(=O)N(C)CC(=O)N(C)[C@@H](C(C)C)C(=O)O[C@@H]4C)c3nc-2c(C(=O)N[C@@H]2C(=O)N[C@H](C(C)C)C(=O)N3CCC[C@H]3C(=O)N(C)CC(=O)N(C)[C@@H](C(C)C)C(=O)O[C@@H]2C)c(N)c1=O [actinomycin D, reference compound] (I: T[dV]P[Sar][NMeV] / II: T[dV]P[Sar][NMeV]; ester I:1-I:C, II:1-II:C; linker I:N-II:N via Actinocin(9to1))
- Apoptosis-inducing / antiproliferation activity (condensation of nuclei, shrinking of cells, apoptotic bodies) ([1]; optical microscope): Condensation of nuclei, shrinking of cells and formation of apoptotic bodies were observed

Molecule: CC(C)C(=O)OC1C=CC(=O)C1OC(=O)C(C)C (stereo not drawn) [Diisobutyrylcyclopentenone, diisobutyrylcyclopentenone]
- IC50 [1]: 8.8 µM
- Average days of survival (Meth A): 15.5 days
- Prolongation rate (Meth A): 132%
- 30-day survival number (Meth A; groups of 8 mice): 0
- Death after single oral administration ([2]; in vivo, po, 100 mg/kg): no death was observed
- Amount of TNF mean ± SE ([3]; 10 mg/kg subcutaneous 30 minutes before LPS): 3.39 ± 0.33 ng/mL
- TNF mean ± SE ([3]; 30 mg/kg oral 30 minutes before LPS): 3.92 ± 0.13 ng/mL
- TNF mean ± SE ([3]; 100 mg/kg oral 30 minutes before LPS): 2.48 ± 0.43 ng/mL
- MIC ([4]; Candida albicans, TIMM0136, read-out: Minimum growth inhibitory concentration): 500 µg/mL (≈ 1970 µM)
- Concentration at which ability to induce HSP70 is maximized [5]: 2.5 µM
- Concentration at which ability to induce HSP70 is observed [5]: 1.25 µM
- Degree of induction of 70-kDa heat shock protein ([5]; 0.63 μM): ±
- Degree of induction of 70-kDa heat shock protein ([5]; 1.3 μM): +
- Degree of induction of 70-kDa heat shock protein ([5]; 2.5 μM): +++
- Degree of induction of 70-kDa heat shock protein ([5]; 5 μM): +++
- Degree of induction of 70-kDa heat shock protein ([5]; 10 μM): +
- Degree of induction of 70-kDa heat shock protein ([5]; 20 μM): +
- Average days of survival ([6]; intraperitoneal 10 mg/kg): 17.0 days
- Prolongation rate ([6]; intraperitoneal 10 mg/kg): 136%
- 30-day survival number ([6]; intraperitoneal 10 mg/kg): 0
- Average days of survival ([6]; intraperitoneal 30 mg/kg): 25.3 days
- Prolongation rate ([6]; intraperitoneal 30 mg/kg): >202%
- 30-day survival number ([6]; intraperitoneal 30 mg/kg): 3
- Average days of survival ([6]; oral 30 mg/kg): 15.1 days
- Prolongation rate ([6]; oral 30 mg/kg): 121%
- 30-day survival number ([6]; oral 30 mg/kg): 0
- Average days of survival ([6]; oral 100 mg/kg): 20.9 days
- Prolongation rate ([6]; oral 100 mg/kg): 167%
- 30-day survival number ([6]; oral 100 mg/kg): 0

Molecule: COCC(=O)OC1C=CC(=O)C1OC(=O)COC (stereo not drawn) [Dimethoxyacetylcyclopentenone, dimethoxyacetylcyclopentenone]
- IC50 [1]: 14 µM

Molecule: dihexanoylcyclopentenone
- Suppression of edema in foot (FIG. 5) ([7]; 1 mg/kg oral): significant suppression
- Suppression of edema in foot (FIG. 5) ([7]; 10 mg/kg oral): significant suppression
- Death after single oral administration [2, 8]: no death was observed

Molecule: COC(=O)/C=C/C(=O)OC1C=CC(=O)C1OC(=O)/C=C/C(=O)OC (stereo not drawn) [Dimethylfumarylcyclopentenone, dimethylfumarylcyclopentenone]
- IC50 [1]: 2.9 µM

Molecule: di-2-hexenoylcyclopentenone
- Suppression of edema in foot (FIG. 5) ([7]; 1 mg/kg oral): significant suppression
- Suppression of edema in foot (FIG. 5) ([7]; 10 mg/kg oral): significant suppression
- Death after single oral administration [2, 8]: no death was observed
- Minimum growth inhibitory concentration [4]: 500 µg/mL
- Degree of induction of 70-kDa heat shock protein ([5]; 0.63 μM): ±
- Degree of induction of 70-kDa heat shock protein ([5]; 1.3 μM): +
- Degree of induction of 70-kDa heat shock protein ([5]; 2.5 μM): ++
- Degree of induction of 70-kDa heat shock protein ([5]; 5 μM): +++
- Degree of induction of 70-kDa heat shock protein ([5]; 10 μM): ±
- Degree of induction of 70-kDa heat shock protein ([5]; 20 μM): −
